# Test results from ChEMBL document CHEMBL3885861, “Open TG-GATES”.
# Species: Rattus norvegicus
# Test: Open TG-GATES - Regimen: Single
# Format: toxicity, organism-based, Sprague-Dawley
# Set-up: regimen Single, gender Male, age 6 weeks
# Conditions: in vivo, po, 5 mg/kg, route gavage, dose level Low; for APTT / Bas / Eos / Fbg / Hb / Ht / Lym / MCH / MCHC / MCV / Mono / Neu / PT / Plat / RBC / Ret / WBC: tissue Blood; for KIDNEY_L / KIDNEY_R / KIDNEY_TOTAL: tissue Kidney; for LIVER: tissue Liver; for A/G / ALP / ALT / AST / BUN / CRE / Ca / Cl / DBIL / GLC / IP / K / LDH / Na / PL / RALB / TBIL / TC / TG / TP / gamma-GTP: tissue Plasma
smiles,measurement,setting,value
CC(=N)S [THIOACETAMIDE],TERMINAL_BW,3 h,189.9 g
same,APTT,3 h,17.2 s
same,Bas,3 h,0%
same,Eos,3 h,0.6%
same,Fbg,3 h,225 mg/dL
same,Hb,3 h,13.1 g/dL
same,Ht,3 h,39.7%
same,Lym,3 h,81.4%
same,MCH,3 h,21.3 pg
same,MCHC,3 h,32.9%
same,MCV,3 h,64.6 fL
same,Mono,3 h,6.4%
same,Neu,3 h,11.4%
same,PT,3 h,12.1 s
same,Plat,3 h,105.8 x10_4/uL
same,RBC,3 h,614.6 x10_4/ul
same,Ret,3 h,9.2%
same,WBC,3 h,119.1 x10_2/uL
same,KIDNEY_L,3 h,0.9 g
same,KIDNEY_R,3 h,0.9 g
same,KIDNEY_TOTAL,3 h,1.7 g
same,LIVER,3 h,8.7 g
same,A/G,3 h,2.1
same,ALP,3 h,842.8 IU/L
same,ALT,3 h,31.2 IU/L
same,AST,3 h,64 IU/L
same,BUN,3 h,12.2 mg/dL
same,CRE,3 h,0.5 mg/dL
same,Ca,3 h,10.9 mg/dL
same,Cl,3 h,103.4 meq/L
same,DBIL,3 h,0 mg/dL
same,GLC,3 h,179.8 mg/dL
same,IP,3 h,9.2 mg/dL
same,K,3 h,4.4 meq/L
same,LDH,3 h,97.6 IU/L
same,Na,3 h,138.2 meq/L
same,PL,3 h,149.6 mg/dL
same,RALB,3 h,3.8 g/dL
same,TBIL,3 h,0.3 mg/dL
same,TC,3 h,85.8 mg/dL
same,TG,3 h,70.6 mg/dL
same,TP,3 h,5.6 g/dL
same,gamma-GTP,3 h,2 IU/L
same,TERMINAL_BW,6 h,185.4 g
same,APTT,6 h,17.8 s
same,Bas,6 h,0%
same,Eos,6 h,1%
same,Fbg,6 h,237.8 mg/dL
same,Hb,6 h,13.2 g/dL
same,Ht,6 h,40.2%
same,Lym,6 h,70.4%
same,MCH,6 h,21.2 pg
same,MCHC,6 h,32.9%
same,MCV,6 h,64.4 fL
same,Mono,6 h,9.4%
same,Neu,6 h,19%
same,PT,6 h,12.4 s
same,Plat,6 h,113.6 x10_4/uL
same,RBC,6 h,625.4 x10_4/ul
same,Ret,6 h,9.1%
same,WBC,6 h,94.9 x10_2/uL
same,KIDNEY_L,6 h,0.9 g
same,KIDNEY_R,6 h,0.9 g
same,KIDNEY_TOTAL,6 h,1.8 g
same,LIVER,6 h,8.2 g
same,A/G,6 h,2.2
same,ALP,6 h,729.4 IU/L
same,ALT,6 h,29.8 IU/L
same,AST,6 h,62.4 IU/L
same,BUN,6 h,10.2 mg/dL
same,CRE,6 h,0.6 mg/dL
same,Ca,6 h,10.4 mg/dL
same,Cl,6 h,104.4 meq/L
same,DBIL,6 h,0.002 mg/dL
same,GLC,6 h,179.6 mg/dL
same,IP,6 h,9 mg/dL
same,K,6 h,4.9 meq/L
same,LDH,6 h,76 IU/L
same,Na,6 h,137.2 meq/L
same,PL,6 h,132.2 mg/dL
same,RALB,6 h,3.8 g/dL
same,TBIL,6 h,0.4 mg/dL
same,TC,6 h,80.2 mg/dL
same,TG,6 h,41.4 mg/dL
same,TP,6 h,5.6 g/dL
same,gamma-GTP,6 h,1.2 IU/L
